From patent US8859587B2, “(2E)-3-phenyl-N-[2,2,2-Trifluoro-1-[[8-quinolineamino)thiomethyl]amino]ethyl]-2-acrylamide and pharmaceutical uses thereof” (Chinese PLA General Hospital, priority 2010, dated 2014) come the findings set out here.

Like-named read-outs stand apart in the source and are kept apart here. Marks after values point to notes of the source that are not given here.

In assay [1] the test system is primary cardiac muscle cells. The format is cell-based, Wistar rats. To be noted: 48 h, MTT, normal cells. As to the method: Animal: newly born Wistar rats, rat age: within 24 h, male and female
The separation and culture of cardiomyocyte refer to the method of differential adhesion separation (Kreider, A. Messing, H. Doan, S. U. Kim, R. P. Lisak and D. E. Pleasure, Enrichment of Schwann cell cultures from neonatal rat sciatic nerve by differential adhesion, Brain Res 2 (1981), pp. 433-444.), Wistar neonate rats newly born within 24 h were used to obtain primary cardiac muscle cells.
The separated primary culture of cardiac muscle cells as obtained by the above method were inoculated in an amount of 10^4 cells per well to a 96-well plate, and the volume of each well was 100 μl (marginal wells were filled with sterile PBS). After being cultivated in 5% CO2 and 37° C. incubator for 4 d, they were added with the compound of Formula 1 at different concentrations (0.3 μM, 1 μM, 3 μM, 10 μM, 30 μM, 100 μM), 3 double-wells were set for each concentration, at the same time, zero setting wells (culture medium, MTT, DMSO), and control wells (culture medium, DMSO) were also set. After continuous inoculation for 48 h, each well was added with 20 μl of MTT solution (5 mg/ml, formulated with PBS (pH=7.4), i.e., 0.5% MTT), and the cultivation was continued for 4 h. After the end of cultivation, culture medium in wells was carefully sucked out. Each well was added with 150 μl of DMSO, shaken at a low speed in a shaking table for 10 min, so that the crystal was sufficiently dissolved. The optical density (OD) value of each well was measured at wavelength of 550 nm by enzyme-linked immunoassay instrument, and each well was repeatedly measured for 5 times and the results were recorded.

The subject of assay [2] is caspase-12 and cleaved caspase-12. The assay is described as follows: Western blot of caspase-12 and cleaved caspase-12 in TM-induced cardiac muscle cells. The format is cell-based, Wistar rats. As to the method:
(12000 rpm×10 min), collected supernatant. Nitrocellulose membrane was dipped in a transferring buffer for 15-20 min in advance. Sampled in 50 μg protein/lane, subjected to 10% polyacrylamide gel SDS-PAGE electrophoretic separation, the gel was then tiled in electrotransferring clamp, in which sponge, filter paper, gel, nitrocellulose membrane, filter paper and sponge were mounted from negative electrode to positive electrode in order. Constant current 350 mA, electrotransferred for 45 min. Electrotransferring membrane to […], the nitrocellulose membrane was taken out, the membrane was washed with TBST for 2 min, sealed with 5% defatted milk powder at room temperature for 1 h, added with first antibody (1:1000) and incubated at 4° C. overnight, the membrane was washed with TBST, 3 times×5 min, then […] second antibody was added, incubated at room temperature for 1 h, washed with TBST, 3 times×5 min, soaked separately with TSM1 and TSM2 for 5 min and 10 min, developed with chromogenic substrates 6.6 μl NBT and 3.3 μl BCIP dissolved in 1 ml of TSM2, after bonds become clear, the reaction was terminated by washing with water. After the end of development, the records were stored by scanning or taking photos.
In general terms: In western blotting, separated proteins are transferred to a membrane and probed.

Assay [3] has as its system primary cardiac muscle cells induced by TM. The assay is described as follows: Cardiomyocyte apoptosis induced by TM, AnnexinV-FITC flow cytometer. Type of assay: cell-based, Wistar rats. To be noted: for Cardiomyocyte apoptosis rate detected by flow cytometer (%): 24 h. The procedure: (§1) The primary cardiac muscle cells obtained by the method according to the culture method of primary cardiac muscle cells of Example 1 were added with tunicamycin (TM) on the 4th day to perform interference test. The cells were randomly divided into 5 groups: solvent control group (DMSO), TM interference group (5 μg/ml), Compound of Formula I+TM interference group (10 μM+5 μg/ml), Compound of Formula I interference group ([…]+5 μg/ml), Compound of Formula I interference group ([…]+5 μg/ml).
it is 24 h after drug interference, the cells were treated by the method of AnnexinV-FITC apoptosis kit, and the apoptosis was detected within 1 h by using a flow cytometer (BD ACScalibur, US Becton-Dickinson Company). For each sample, 14000 cells were collected and analyzed, the test was repeated for 3 times, and the average value was used as a result.

Assay [4] shares this test system. Description: Cardiomyocyte apoptosis induced by TM, TUNEL detection. Type of assay: cell-based, Wistar rats. To be noted: for TUNEL detection (%) cardiomyocyte apoptosis rate: 24 h, n = 6. As to the method:
as §1
It was 24 h after drug interference, the apoptotic cells were detected by terminal deoxynucleotidyl transferase-mediated biotinylated UTP nick end labeling (TUNEL) method, and the cells were treated according to the specification of kit. The cells treated with 0.1 mg/ml DNase I and growing on a glass slide were used as positive control. 5 or more visual fields were randomly selected under light microscope, the apoptotic cells (brown yellow granules seen in nucleus) among the cells were counted. Apoptosis rat=(number of positively stained nuclei/number of all nuclei)×100%.

In assay [5] the test system is apoptosis stimulation irrelevant to endocytoplasmic reticulum stress. The assay is described as follows: Protection against apoptosis stimulation irrelevant to endocytoplasmic reticulum stress. Type of assay: cell-based.

Regarding `O=C(/C=C/c1ccccc1)NC(NC(=S)Nc1cccc2cccnc12)C(Cl)(Cl)Cl` (centres unmarked) [Compound of Formula I, (2E)-3-phenyl-N-[2,2,2-trichloro-1-[[(8-quinolylamino)thiomethyl]amino]ethyl]-2-acrylamide], the “Cardiomyocyte survival rate (%)” value is recorded as 98.8562 ± 6.7316^a % in assay [1] (0.3 μM); 91.6667 ± 7.6257^a % in assay [1] (1 μM); 94.5261 ± 3.7997^a % in assay [1] (3 μM); 102.7778 ± 3.0645^a % in assay [1] (10 μM); 105.8007 ± 3.2639^a % in assay [1] (30 μM); 104.2484 ± 7.3625^a % in assay [1] (100 μM). Besides, the “expression of Cleaved caspase-12” value in assay [2] (10, 20, 40 μM + TM 5 μg/ml) is “gradually decreases with the increase of the concentration”. Moreover, the Caspase-12 expression entry in assay [2] (different concentrations for 24 h) is listed as “no significant change”. For the same compound, the “Cardiomyocyte apoptosis rate detected by flow cytometer (%)” value in assay [3] (10 μM + TM 5 μg/ml) is reported as 22.98 ± 1.35^ab %; in assay [3] (20 μM + TM 5 μg/ml), 20.13 ± 0.87^ab %; in assay [3] (40 μM + TM 5 μg/ml) it was 18.64 ± 0.83^ab %. For the same compound, the “apoptosis rates in comparison with the TM group (flow cytometer)” value in assay [3] (10, 20, 40 μM, P<0.05) is “significantly decreased apoptosis rates”. Further, the “TUNEL detection (%) cardiomyocyte apoptosis rate” value was 25.75 ± 0.97 ^b % in assay [4] (10 μM + TM 5 μg/mL), 24.94 ± 0.82 ^b % in assay [4] (20 μM + TM 5 μg/mL) and 21.15 ± 0.85 ^b c % in assay [4] (40 μM + TM 5 μg/mL). Also, in assay [4] (10, 20, 40 μM, P<0.05), the “apoptosis rate in comparison with the TM interference group (TUNEL)” value is reported as “significant decrease in apoptosis rate”. The “protection against apoptosis stimulation irrelevant to endocytoplasmic reticulum stress” value in assay [5] is “does not protect apoptosis stimulation irrelevant to endocytoplasmic reticulum stress”.
